Test results as given in patent US20240174617A1, “FPR2 (FORMYL PEPTIDE RECEPTOR 2)RECEPTOR AGONISTS AND THEIR USE IN THE TREATMENT OF THE AUTISM SPECTRUM DISORDER” (UNIVERSITA' DEGLI STUDI DI BARI ALDO MORO, priority 2021, published 2024).

What was measured:
Assay type in all cases: cell-based
[1] = system: mouse microglial N9 cells; experiment: cell viability (LDH assay) in microglial N9 cells; conditions: for LDH release activity (cytotoxic effect): basal conditions, 0.5-5 μM, 24 hours (FIG. 4); for cell mortality (LDH release), neuroprotective effect: pre-incubation 0.5-5 μM, then LPS (100 ng/mL) for 24 hours (FIG. 4)
Procedure: Study of the effect of compounds (S)-4, (S)-5, (S)-7, (R)-8, (S)-8, (S)-9, (S)-12, (S)-15 and (S)-16 on the cell viability (LDH assay) in cultures of mouse microglial N9 cells.
The neuroprotective activity of the compounds (S)-4, (S)-5, (S)-7, (R)-8, (S)-8, (S)-9, (S)-12, (S)-15 and (S)-16 was assessed by determining its effect on the cell viability both under basal conditions and following stimulation with bacterial lipopolysaccharide (LPS) toxin. The mouse microglial N9 cells were seeded in a 96-well plate (2x10^4 cells/well) by using RPMI supplemented with 1% fetal bovine serum (FBS) as culture medium. The cells were incubated for 24 hours with different concentrations of the selected compounds (0.5-5 μM) to assess the potential cytotoxic effect of the compounds. The control cells were treated with the carrier only. To quantify the cell mortality, the level of lactate dehydrogenase (LDH) release after 24 hours of treatment was determined. The supernatant of the cell cultures was taken and incubated for 20 minutes at room temperature with the appropriate mixture of reagents according to the instructions of the supplier of the assessment kit (Cytotoxicity Detection Kit, Roche, Germany). The LDH release activity was determined as conversion of lactate to pyruvate by a colorimetric test (X=490 nm, Infinite 200 PRO Detector, TECAN, Switzerland). The LDH release activity is proportional to the 25 number of damaged cells. […] Subsequently, the cells were pre-incubated with different concentrations of the selected compounds (0.5-5 μM) and then stimulated with LPS (100 ng/mL) for 24 hours. The control cells were treated with the carrier only. The cell viability at the end 30 of 24 hours was assessed as previously described.

[2] = system: IL-1β release in mouse microglial N9 cells; experiment: IL-1β release (ELISA) in microglial N9 cells
Procedure: (§1) The anti-inflammatory effect of the compounds (S)-4, (S)-7, (S)-8, (S)-9 and (S)-16 was determined by assessing its ability to affect the release of the pro-inflammatory cytokines IL-1β and TNF-α both in the cells under basal conditions and after stimulation with LPS. The mouse microglial N9 cells were seeded in a 96-well plate (2×10^4 cells/well) by using Iscove supplemented with 10% FBS as culture medium. The cells were then treated with different concentrations of the selected compounds (0.5-5 il.M) for 24 hours. The supernatant was then collected and the IL-1β and TNF-a levels were measured by using specific ELISA kits following the instructions of the supplier (R&D Systems, USA). […] Subsequently, the cells were pre-incubated with different concentrations of the selected compounds (0.5-5 μM) and then stimulated with LPS (100 ng/mL) for 24 hours. The control cells were treated with the carrier only. The IL-1β and TNF-α levels were determined as previously described. […] The specificity of the observed effect was assessed by co-incubating the cells with the FPR2 antagonist WRW4.

[3] = system: TNF-α release in mouse microglial N9 cells; experiment: TNF-α release (ELISA) in microglial N9 cells
Procedure: as §1

[4] = basal conditions, 0.5-5 μM, 24 hours (FIG. 5)
[5] = pre-incubation 0.5-5 μM, then LPS (100 ng/mL) for 24 hours (FIG. 5)
[6] = basal conditions, 0.5-5 μM, 24 hours (FIG. 6)
[7] = pre-incubation 0.5-5 μM, then LPS (100 ng/mL) for 24 hours (FIG. 6)

SMILES: N#Cc1ccc(C[C@H](NC(=O)Nc2ccc(F)cc2)C(=O)NC2CCCCNC2=O)cc1 (stereo partly drawn) [(S)-4, (2S)-3-(4-Cyanophenyl)-2-(3-(4-fluorophenyl)ureido)-N-(2-oxoazepan-3-yl)propanamide]
- LDH release activity (cytotoxic effect) [1]: do not increase the LDH release activity
- cell mortality (LDH release), neuroprotective effect [1]: reduce the cell mortality effect caused by the stimulation with LPS
- IL-1β release [2, 4]: do not cause increased release of the two cytokines
- IL-1β release [2, 5]: reduce the release of inflammatory cytokines
- TNF-α release [3, 6]: do not cause increased release of the two cytokines
- TNF-α release [3, 7]: reduce the release of inflammatory cytokines

SMILES: N#Cc1ccc(C[C@H](NC(=O)Nc2ccc(F)cc2)C(=O)N2CCc3ccccc32)cc1 [(S)-7, (S)-1-(3-(4-Cyanophenyl)-1-(indolin-1-yl)-1-oxopropan-2-yl)-3-(4-fluorophenyl)urea]
- LDH release activity (cytotoxic effect) [1]: do not increase the LDH release activity
- cell mortality (LDH release), neuroprotective effect [1]: reduce the cell mortality effect caused by the stimulation with LPS
- IL-1β release [2, 4]: do not cause increased release of the two cytokines
- IL-1β release [2, 5]: reduce the release of inflammatory cytokines
- TNF-α release [3, 6]: do not cause increased release of the two cytokines
- TNF-α release [3, 7]: reduce the release of inflammatory cytokines

SMILES: N#Cc1ccc(C[C@H](NC(=O)Nc2ccc(F)cc2)C(=O)N2CCc3ccc(F)cc32)cc1 [(S)-8, (S)-1-(3-(4-Cyanophenyl)-1-(6-fluoroindolin-1-yl)-1-oxopropan-2-yl)-3-(4-fluorophenyl)urea]
- LDH release activity (cytotoxic effect) [1]: do not increase the LDH release activity
- cell mortality (LDH release), neuroprotective effect [1]: reduce the cell mortality effect caused by the stimulation with LPS
- IL-1β release [2, 4]: do not cause increased release of the two cytokines
- IL-1β release [2, 5]: reduce the release of inflammatory cytokines
- TNF-α release [3, 6]: do not cause increased release of the two cytokines
- TNF-α release [3, 7]: reduce the release of inflammatory cytokines

SMILES: N#Cc1ccc(C[C@H](NC(=O)Nc2ccc(F)cc2)C(=O)N2CCc3cc(F)ccc32)cc1 [(S)-9, (S)-1-(3-(4-Cyanophenyl)-1-(5-fluoroindolin-1-yl)-1-oxopropan-2-yl)-3-(4-fluorophenyl)urea]
- LDH release activity (cytotoxic effect) [1]: do not increase the LDH release activity
- cell mortality (LDH release), neuroprotective effect [1]: reduce the cell mortality effect caused by the stimulation with LPS
- IL-1β release [2, 4]: do not cause increased release of the two cytokines
- IL-1β release [2, 5]: reduce the release of inflammatory cytokines
- TNF-α release [3, 6]: do not cause increased release of the two cytokines
- TNF-α release [3, 7]: reduce the release of inflammatory cytokines
